Results from patent US10829483B2, “Thiophene, manufacturing method thereof, and pharmaceutical application of same” (CSTONE PHARMACEUTICAL (SUZHOU) CO., LTD., priority 2016, dated 2020).

What follows are compounds tested against URAT-1 (uric acid transporter) (Homo sapiens (Human), UniProt Q96S37) (assay: Inhibition of 14C uric acid transport by HEK293 cell line stably transfected with the URAT-1 gene). Settings: URAT-1 (HEK293) cells; 14C-labelled uric acid 50 um, 10 min at 37° C.; read-out: IC50 (inhibition against URAT-1).
Chain of URAT-1 (uric acid transporter) (Q96S37 whole entry): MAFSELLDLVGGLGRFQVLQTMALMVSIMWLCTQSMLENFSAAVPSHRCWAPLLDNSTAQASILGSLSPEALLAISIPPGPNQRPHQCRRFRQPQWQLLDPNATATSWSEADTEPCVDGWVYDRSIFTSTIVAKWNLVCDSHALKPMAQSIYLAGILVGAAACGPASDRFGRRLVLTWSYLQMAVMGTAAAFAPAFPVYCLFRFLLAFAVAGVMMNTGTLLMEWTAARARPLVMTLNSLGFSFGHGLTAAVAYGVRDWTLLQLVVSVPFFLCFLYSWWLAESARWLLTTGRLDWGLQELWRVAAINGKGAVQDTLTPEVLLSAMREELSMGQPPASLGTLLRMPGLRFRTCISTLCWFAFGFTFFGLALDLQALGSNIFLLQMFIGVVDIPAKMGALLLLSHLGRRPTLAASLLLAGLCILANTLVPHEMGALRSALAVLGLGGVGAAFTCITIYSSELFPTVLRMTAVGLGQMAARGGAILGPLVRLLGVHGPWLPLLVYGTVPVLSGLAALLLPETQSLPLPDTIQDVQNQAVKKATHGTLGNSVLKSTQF
Format: cell-based
Description: Determination of the IC50 value of the inhibitory activity of the compound against uric acid reabsorption by the HEK293 cell line stably transfected with the URAT-1 (uric acid transporter) gene.
URAT-1 (HEK293) cell line: the HEK293 cell line stably transfected with the URAT-1 gene
cell culture medium: DMEM culture medium added 10% fetal bovine serum (FBS), 1% sodium pyruvate and […] G418.
Uric acid solution labeled by ^14C.
1) the supernatant of cell culture was aspirated, and cells was washed with 10 mL PBS.
2) preheated trypsin was added into the cell culture flask, and the cell culture flask was rotated to make trypsin covering onto the bottom of cell culture flask equably.
3) the cells were suspended with 10-15 mL of culture medium in each T150 flask, took 0.1 mL of cell suspension and diluted it with two volumes of trypan blue solution to count the cells.
4) cells were diluted to 2.5×10^5/mL with the culture medium, and the diluted cells were added into a rat tail collagen-coated 24-well plate (800 uL/well, 2×10^5 cells/well). The plate was incubated overnight at 37° C. in a 5% CO2 incubator.
1) cells were seeded into 24-well plate, and supernatant was discarded after 16-18 h. The cells were washed twice using 600 ul HBSS buffer.
2) HBSS buffer was removed and 180 ul of HBSS buffer was added into each well again.
1) compounds were dissolved into 100% DMSO, and diluted into 6 concentration points by 3-fold dilution, or into 2 concentration points by 10-fold dilution, and the highest starting concentration was 50 mM.
2) 5 ul DMSO solution in step 1) was transferred into 120 ul of HBSS buffer to make a 25-fold dilution.
3) 10 ul diluted solution in step 2) was added into 24-well plate, and the plate was incubated for 15 min at 37° C. in a 5% CO2 incubator. The final concentration of DMSO is 0.2%. The control well contained 0.2% DMSO without compound.
^14C-labelled uric acid was diluted and added into plate, and the final concentration is 50 um. The plate was incubated for 10 min at 37° C. in a 5% CO2 incubator. After supernatant was discarded, cells were washed with HBSS buffer twice. Cells was lysed with 0.1M NaOH. And then cell lysis solution was collected into liquid scintillation tube and added with liquid scintillation solution. The signal was read by liquid scintillation counter Tri-Carb. e) data analysis URAT-1 inhibition by the treatment of the compounds was analyzed by calculating the percentage of inhibition. Non-linear fitting analysis of percent inhibition (inh %) data using GraphPad Prism software to generate the IC50 value.

Structure (SMILES) | IC50
O=C(O)CSc1nnc(Br)n1-c1sc(C2CC2)c2c1CCCC2 [WX001] | < 2 µM
O=C(O)CSc1nncn1-c1sc(C2CC2)c2c1CCCC2 [WX002] | > 20 µM
O=C(O)CSc1nnc(Br)n1-c1sc(-c2ccccc2)c2c1CCCC2 [WX003] | 2 to 20 µM
CC(Sc1nnc(Br)n1-c1sc(-c2ccccc2)c2c1CCCC2)C(=O)O (stereo not shown) [WX004] | 2 to 20 µM
CC(C)(Sc1nnc(Br)n1-c1sc(-c2ccccc2)c2c1CCCC2)C(=O)O [WX005] | < 2 µM
O=C(O)CSc1nnc(Br)n1-c1sc(-c2ccc(F)cc2)c2c1CCCC2 [WX006] | 2 to 20 µM
O=C(O)CSc1nnc(Br)n1-c1sc(-c2cccc(F)c2)c2c1CCCC2 [WX007] | 2 to 20 µM
O=C(O)CSc1nnc(Br)n1-c1sc(-c2ccc(F)c(F)c2)c2c1CCCC2 [WX008] | 2 to 20 µM
O=C(O)CSc1nnc(Br)n1-c1sc(-c2cc(F)cc(F)c2)c2c1CCCC2 [WX009] | < 2 µM
CC(C)(Sc1nnc(Br)n1-c1sc(-c2ccc(C(F)(F)F)cc2)c2c1CCCC2)C(=O)O [WX010] | 2 to 20 µM
CC(C)(Sc1nnc(Br)n1-c1sc(-c2ccc(Cl)c(Cl)c2)c2c1CCCC2)C(=O)O [WX011] | < 2 µM
COc1ccc(-c2sc(-n3c(Br)nnc3SC(C)C(=O)O)c3c2CCCC3)cc1Br (stereo not shown) [WX012] | < 2 µM
CC(C)(Sc1nnc(Br)n1-c1sc(-c2ccc(F)c(F)c2)c2c1CCCC2)C(=O)O [WX013] | < 2 µM
CC(Sc1nnc(Br)n1-c1sc(-c2ccc(C(F)(F)F)cc2)c2c1CCCC2)C(=O)O (stereo not shown) [WX014] | < 2 µM
CC(Sc1nnc(Br)n1-c1sc(-c2ccc(S(C)(=O)=O)cc2)c2c1CCCC2)C(=O)O (stereo not shown) [WX015] | > 20 µM
COc1ccc(-c2sc(-n3c(Br)nnc3SC(C)C(=O)O)c3c2CCCC3)cc1 (stereo not shown) [WX016] | 2 to 20 µM
COc1ccc(-c2sc(-n3c(Br)nnc3SCC(=O)O)c3c2CCCC3)cc1 [WX017] | 2 to 20 µM
CC(Sc1nnc(Br)n1-c1sc(-c2ccc(Cl)c(Cl)c2)c2c1CCCC2)C(=O)O (stereo not shown) [WX018] | 2 to 20 µM
O=C(O)CSc1nnc(Br)n1-c1sc(-c2ccc(Cl)c(Cl)c2)c2c1CCCC2 [WX019] | 2 to 20 µM
O=C(O)CSc1nncn1-c1sc(-c2cccc(F)c2)c2c1CCCC2 [WX020] | > 20 µM
O=C(O)CSc1nncn1-c1sc(-c2ccc(F)c(F)c2)c2c1CCCC2 [WX021] | > 20 µM
O=C(O)CSc1nncn1-c1sc(-c2cc(F)cc(F)c2)c2c1CCCC2 [WX022] | > 20 µM
CN(C)c1ccc(-c2sc(-n3cnnc3SC(C)(C)C(=O)O)c3c2CCCC3)cc1Br [WX023] | 2 to 20 µM
CNc1c(Br)cc(-c2sc(-n3cnnc3SC(C)(C)C(=O)O)c3c2CCCC3)cc1Br [WX024] | 2 to 20 µM
CC(C)(Sc1nnc(Br)n1-c1sc(-c2ccncn2)c2c1CCCC2)C(=O)O [WX025] | > 20 µM
CC(Sc1nnc(Br)n1-c1sc(C2CC2)c2c1CCCC2)C(=O)O (stereo not shown) [WX026] | < 2 µM
CC(C)(Sc1nnc(Br)n1-c1sc(C2CC2)c2c1CCCC2)C(=O)O [WX027] | < 2 µM

Structure (SMILES) | IC50
CC(C)C(Sc1nnc(Br)n1-c1sc(C2CC2)c2c1CCCC2)C(=O)O (stereo not shown) [WX028] | < 2 µM
O=C(O)C1(Sc2nnc(Br)n2-c2sc(C3CC3)c3c2CCCC3)CCC1 [WX029] | < 2 µM
O=C(O)C1(Sc2nnc(Br)n2-c2sc(C3CC3)c3c2CCCC3)CCCC1 [WX030] | < 2 µM
C[C@@H](Sc1nnc(Br)n1-c1sc(C2CC2)c2c1CCCC2)C(=O)O [WX031] | < 2 µM
C[C@H](Sc1nnc(Br)n1-c1sc(C2CC2)c2c1CCCC2)C(=O)O [WX032] | < 2 µM
CC(C)(Sc1nnc(Br)n1-c1sc(C2CC2)c2c1CCC(F)(F)C2)C(=O)O [WX033] | < 2 µM
CC1(C)CCc2c(C3CC3)sc(-n3c(Br)nnc3SC(C)(C)C(=O)O)c2C1 [WX034] | < 2 µM
CC1(C)CCc2c(-n3c(Br)nnc3SC(C)(C)C(=O)O)sc(C3CC3)c2C1 [WX035] | < 2 µM
CC(Sc1nncn1-c1sc(C2CC2)c2c1CCCC2)C(=O)O (stereo not shown) [WX036] | > 20 µM
O=C(O)CSc1nnc(Br)n1-c1sc(-c2ccccc2)c2c1CCC2 [WX037] | > 20 µM
O=C(O)CSc1nnc(Br)n1-c1sc(-c2ccc(F)cc2)c2c1CCC2 [WX038] | > 20 µM
O=C(O)CSc1nnc(Br)n1-c1sc(-c2cccc(F)c2)c2c1CCC2 [WX039] | > 20 µM
O=C(O)CSc1nnc(Br)n1-c1sc(-c2ccc(Cl)cc2)c2c1CCC2 [WX040] | > 20 µM
O=C(O)CSc1nnc(Br)n1-c1sc(-c2ccc(Cl)c(Cl)c2)c2c1CCC2 [WX041] | > 20 µM
Cc1ccc(-c2sc(-n3c(Br)nnc3SCC(=O)O)c3c2CCC3)cc1 [WX042] | > 20 µM
COc1ccc(-c2sc(-n3c(Br)nnc3SCC(=O)O)c3c2CCC3)cc1 [WX043] | > 20 µM
O=C(O)CSc1nnc(Br)n1-c1sc(-c2ccc(C(F)(F)F)cc2)c2c1CCC2 [WX044] | > 20 µM
O=C(O)CSc1nnc(Br)n1-c1sc(-c2cccc(Cl)c2)c2c1CCC2 [WX045] | > 20 µM
CC(C)(C)c1ccc(-c2sc(-n3c(Br)nnc3SCC(=O)O)c3c2CCC3)cc1 [WX046] | > 20 µM
Cn1cc(-c2sc(-n3c(Br)nnc3SCC(=O)O)c3c2CCC3)cn1 [WX047] | > 20 µM
CC(C)(C)c1ccc(-c2sc(-n3cnnc3SCC(=O)O)c3c2CCC3)cc1 [WX048] | > 20 µM
COc1ccc(-c2sc(-n3cnnc3SCC(=O)O)c3c2CCC3)cc1 [WX049] | > 20 µM
Cc1ccc(-c2sc(-n3cnnc3SCC(=O)O)c3c2CCC3)cc1 [WX050] | > 20 µM
O=C(O)CSc1nncn1-c1sc(-c2ccc(C(F)(F)F)cc2)c2c1CCC2 [WX051] | > 20 µM
O=C(O)CSc1nncn1-c1sc(-c2cccc(Cl)c2)c2c1CCC2 [WX052] | > 20 µM
CN(C)c1ccc(-c2sc(-n3cnnc3SCC(=O)O)c3c2CCC3)cc1 [WX053] | > 20 µM
O=C(O)CSc1nncn1-c1sc(-c2ccc(Cl)cc2)c2c1CCC2 [WX054] | > 20 µM

Structure (SMILES) | IC50
O=C(O)CSc1nncn1-c1sc(-c2ccc(Cl)c(Cl)c2)c2c1CCC2 [WX055] | > 20 µM
Cn1cc(-c2sc(-n3cnnc3SCC(=O)O)c3c2CCC3)cn1 [WX056] | > 20 µM
CN(C)c1ccc(-c2sc(-n3cnnc3SCC(=O)O)c3c2CCC3)cc1Br [WX057] | 2 to 20 µM
O=C(O)CSc1nnc(Br)n1-c1sc(C2CC2)c2c1CCC2 [WX058] | > 20 µM
O=C(O)C1(Sc2nnc(Br)n2-c2sc(C3CC3)c3c2CCC3)CCC1 [WX059] | < 2 µM
O=C(O)C1(Sc2nnc(Br)n2-c2sc(C3CC3)c3c2CCC3)CCCC1 [WX060] | < 2 µM
CC(Sc1nnc(Br)n1-c1sc(C2CC2)c2c1CCC2)C(=O)O (stereo not shown) [WX061] | < 2 µM
CC(C)(Sc1nnc(Br)n1-c1sc(C2CC2)c2c1CCC2)C(=O)O [WX062] | < 2 µM
CCC(C)(Sc1nnc(Br)n1-c1sc(C2CC2)c2c1CCC2)C(=O)O (stereo not shown) [WX063] | < 2 µM
O=C(O)C(Sc1nnc(Br)n1-c1sc(C2CC2)c2c1CCC2)c1ccccc1 (stereo not shown) [WX064] | 2 to 20 µM
CC1(C)Cc2c(C3CC3)sc(-n3c(Br)nnc3SC(C)(C)C(=O)O)c2C1 [WX065] | < 2 µM
CC1(C)Cc2c(C3CC3)sc(-n3c(Br)nnc3SC3(C(=O)O)CCC3)c2C1 [WX066] | < 2 µM
CC(C)(Sc1nnc(Br)n1-c1cc(Cl)c(C2CC2)s1)C(=O)O [WX067] | < 2 µM
O=C(O)C1(Sc2nnc(Br)n2-c2cc(Cl)c(C3CC3)s2)CCC1 [WX068] | 2 to 20 µM
O=C(O)C1(Sc2nnc(Br)n2-c2cc(Cl)c(C3CC3)s2)CCCC1 [WX069] | < 2 µM
CC(Sc1nnc(Br)n1-c1cc(Cl)c(C2CC2)s1)C(=O)O (stereo not shown) [WX070] | 2 to 20 µM
COc1ccc(-c2sc(-n3c(Br)nnc3SC(C)(C)C(=O)O)cc2Cl)cc1 [WX071] | 2 to 20 µM
CCOC(=O)CSc1nncn1-c1cc(Br)c(C2CC2)s1 [WX072] | > 20 µM
COC(=O)CSc1nncn1-c1cc(Br)c(-c2ccccc2)s1 [WX073] | > 20 µM
CCOC(=O)C(C)Sc1nncn1-c1cc(Br)c(C2CC2)s1 (stereo not shown) [WX074] | > 20 µM
COC(=O)C(C)Sc1nncn1-c1cc(Br)c(-c2ccccc2)s1 (stereo not shown) [WX075] | 2 to 20 µM
CCOC(=O)C(C)(C)Sc1nncn1-c1cc(Br)c(C2CC2)s1 [WX076] | 2 to 20 µM
COC(=O)C(C)(C)Sc1nncn1-c1cc(Br)c(-c2ccccc2)s1 [WX077] | > 20 µM
Cc1cc(-n2c(Br)nnc2SCC(=O)O)sc1C1CC1 [WX078] | > 20 µM
Cc1cc(-n2c(Br)nnc2SCC(=O)O)sc1-c1ccccc1 [WX079] | 2 to 20 µM
